Test results taken from ChEMBL document CHEMBL3580654, “Tetranorsesquiterpenoids and Santalane-Type Sesquiterpenoids from Illicium lanceolatum and Their Antimicrobial Activity against the Oral Pathogen Porphyromonas gingivalis” (J Nat Prod, 2015).
Calls of active or inactive are those of the source. No cut-off for these calls is given here.

Columns and labels:
Streptococcus oralis = experiment: Antibacterial activity against Streptococcus oralis SK23 assessed as effect on growth at 5 to 20 ug/ml after 24 hrs by microplate reader analysis; type: functional; conditions: ATCC 35037
Streptococcus mutans [1] = experiment: Antibacterial activity against Streptococcus mutans MT8148 assessed as growth inhibition at 20 ug/ml after 24 hrs by microplate reader analysis; type: functional, organism-based
Porphyromonas gingivalis [2] = experiment: Antibacterial activity against Porphyromonas gingivalis ATCC 33277 assessed as growth inhibition at 10 to 20 ug/ml after 100 hrs by microplate reader analysis; type: functional, organism-based
[3] = test system: Streptococcus parasanguinis; experiment: Antibacterial activity against […] ATCC 903 assessed as effect on growth at 5 to 20 ug/ml after 24 hrs by microplate reader analysis; type: functional
Streptococcus sobrinus = experiment: Antibacterial activity against Streptococcus sobrinus MT10186 assessed as effect on growth at 5 to 20 ug/ml after 24 hrs by microplate reader analysis; type: functional, organism-based
Porphyromonas gingivalis [4] = experiment: Antibacterial activity against Porphyromonas gingivalis ATCC 33277 assessed as growth inhibition at 5 to 20 ug/ml after 100 hrs by microplate reader analysis; type: functional, organism-based
Streptococcus mutans [5] = experiment: Antibacterial activity against Streptococcus mutans MT8148 assessed as growth inhibition at 5 to 20 ug/ml after 24 hrs by microplate reader analysis; type: functional, organism-based

Row | Structure (SMILES) | Activity (Streptococcus oralis) | growth inhibition (GI) (Streptococcus mutans [1]) | growth inhibition (GI) (Porphyromonas gingivalis [2]) | Activity [3] | Activity (Streptococcus sobrinus) | growth inhibition (GI) (Porphyromonas gingivalis [4]) | growth inhibition (GI) (Streptococcus mutans [5])
1 | C=C(C)C(=O)CCC1(C)C2CC3C(C2)C31C (stereo unspecified) | inactive | Active | Active | inactive | inactive | – | –
2 | C=C[C@@]1(C)CC[C@]2(OC(=O)C=C2C)O1 | inactive | – | – | inactive | inactive | – | –
3 | CC12CC(=O)O[C@H]3CC1CC[C@]32C | inactive | – | – | inactive | inactive | – | –
4 | CC(C)(O)/C=C/CC1(C)C2CC3C(C2)C31C (stereo unspecified) | inactive | – | – | inactive | inactive | inactive | inactive
